For assay [1], the system named is Lepidium sativum. Put plainly: […] against Lepidium sativum assessed as inhibition of seedling growth up to 300 ug/ml. In kind it is functional, organism-based.
The next assay has as its system Escherichia coli. Put plainly: Antimicrobial activity against Escherichia coli K-12 by serial dilution test. In kind it is functional.
Another assay has as its system Rhizomucor miehei. Put plainly: Antimicrobial activity against Mucor miehei assessed as inhibition of conidial germination after 16 hrs by inverted microscopic analysis. In kind it is functional.
Assay [2] has as its system Setaria italica. The assay can be described thus: […] against Setaria italica assessed as seed germination up to 300 ug/ml. In kind it is functional, organism-based.
The next assay deals with Botrytis cinerea. Put plainly: Antimicrobial activity against Botrytis cinerea assessed as inhibition of conidial germination after 16 hrs by inverted microscopic analysis. The assay is classed as functional.
For a further assay, the system named is Caenorhabditis elegans. The assay can be described thus: Nematicidal activity against Caenorhabditis elegans at 100 ug/ml. The assay is classed as functional, organism-based.
In assay [3] the test system is Setaria italica. The assay can be described thus: […] against Setaria italica assessed as inhibition of seedling growth up to 300 ug/ml. The assay is classed as functional, organism-based.
Another assay has as its system Penicillium chrysogenum. Put plainly: Antimicrobial activity against Penicillium notatum assessed as inhibition of conidial germination after 16 hrs by inverted microscopic analysis. In kind it is functional.
A further assay relates to Paecilomyces variotii. Put plainly: Antimicrobial activity against Paecilomyces variotii assessed as inhibition of conidial germination after 16 hrs by inverted microscopic analysis. The assay is classed as functional.
Assay [4] can be described thus: Cytotoxicity against human HeLaS3 cells assessed as reduction in cell proliferation. The assay is classed as functional, cell-based. The conditions noted are these: HeLa S3.
Another assay concerns Eremothecium coryli. The assay can be described thus: Antimicrobial activity against Nematospora coryli at 50 ug/disk by agar diffusion assay. The assay is classed as functional. Conditions: read-out: IZ. In general terms: In agar diffusion tests the substance spreads into inoculated agar from a disc or well.
In a further assay the test system is Bacillus subtilis. Put plainly: Antimicrobial activity against Bacillus subtilis at 50 ug/disk by agar diffusion assay. In kind it is functional. Conditions: read-out: IZ.
In a further assay the test system is Brevibacillus brevis. Put plainly: Antimicrobial activity against Bacillus brevis at 50 ug/disk by agar diffusion assay. The assay is classed as functional. Conditions: read-out: IZ.
The subject of assay [5] is Lepidium sativum. Put plainly: […] against Lepidium sativum assessed as seed germination up to 300 ug/ml. The assay is classed as functional, organism-based.
Assay [6] deals with Enterobacter cloacae subsp. dissolvens. Put plainly: Antimicrobial activity against Enterobacter dissolvens by serial dilution test. In kind it is functional.
The next assay relates to Meloidogyne incognita. The assay can be described thus: Nematicidal activity against Meloidogyne incognita at 100 ug/ml. In kind it is functional, organism-based.
A further assay has as its system Proteus vulgaris. The assay can be described thus: Antimicrobial activity against Proteus vulgaris by serial dilution test. In kind it is functional.
The subject of the next assay is Pyricularia grisea. The assay can be described thus: Antimicrobial activity against Magnaporthe grisea assessed as inhibition of conidial germination after 16 hrs by inverted microscopic analysis. In kind it is functional.
The test system of a further assay is Fusarium graminearum. Put plainly: Antimicrobial activity against Fusarium graminearum assessed as inhibition of conidial germination after 16 hrs by inverted microscopic analysis. In kind it is functional.
The test system of another assay is Phytophthora infestans. The assay can be described thus: Antimicrobial activity against Phytophthora infestans assessed as inhibition of conidial germination after 16 hrs by inverted microscopic analysis. The assay is classed as functional.

Converted amounts (≈) assume the structure as drawn. The source made the active and inactive calls. No cut-off for these calls is given here.

For `COc1cc(O)c2c(c1)C(=O)C1=C(C2=O)C(OC)OC(C)=C1` (configuration not stated) [ASCOMYCONE A], the result in the assay with Lepidium sativum [1], with Setaria italica [2], with Caenorhabditis elegans, in the assay with Setaria italica [3], with Lepidium sativum [5] and with Meloidogyne incognita was inactive. Further, the MIC (with Escherichia coli; in assay [6]; against Proteus vulgaris) was above 50 µg/mL in each case. In addition, the IC100 with Rhizomucor miehei was 50 µg/mL; in the assay on Botrytis cinerea, above 50 µg/mL; in the assay with Penicillium chrysogenum, above 50 µg/mL; in the assay with Paecilomyces variotii, above 50 µg/mL. Further, the IC50 (commonly the concentration that gives 50% inhibition) in assay [4] stood at 5 µg/mL (≈ 16.5 µM). Besides, the zone of inhibition at 50 µg/disc is 0 mm in the assay with Eremothecium coryli, 11 mm in the assay on Bacillus subtilis and 14 mm in the assay with Brevibacillus brevis.

As to `COc1cc(O)c2c(c1)C(=O)C1=C(C2=O)C(O)OC(C)=C1` (configuration not stated) [ASCOMYCONE B], the outcome in the assay on Lepidium sativum [1], in the assay with Setaria italica [2], in the assay on Caenorhabditis elegans, in the assay with Setaria italica [3], in the assay with Lepidium sativum [5] and in the assay on Meloidogyne incognita was inactive. Moreover, the MIC (with Escherichia coli; in assay [6]; in the assay with Proteus vulgaris) was above 50 µg/mL each time. Moreover, the IC100 in the assay on Rhizomucor miehei is 10 µg/mL; in the assay with Botrytis cinerea it was 5 µg/mL; in the assay on Pyricularia grisea, 1 µg/mL; in the assay with Penicillium chrysogenum, 10 µg/mL; in the assay with Paecilomyces variotii it was above 50 µg/mL; with Fusarium graminearum it was 0.5 µg/mL. Also, the IC100 in the assay with Phytophthora infestans was found to be 5 µg/mL. In addition, the IC50 in [4] worked out at 5 µg/mL (≈ 17.3 µM). Moreover, the zone of inhibition at 50 µg/disc with Eremothecium coryli is 13 mm; in the assay on Bacillus subtilis, 10 mm; in the assay with Brevibacillus brevis, 11 mm.

With `CO/C=C1/C(=O)c2c(O)cc(OC)cc2C(=O)C1(O)CC(C)=O` (configuration not stated) [ASCOMYCONE C], the result in the assay on Lepidium sativum [1], with Setaria italica [2], in the assay with Caenorhabditis elegans, with Setaria italica [3], in the assay on Lepidium sativum [5] and in the assay on Meloidogyne incognita was inactive. The MIC (against Escherichia coli; in assay [6]; against Proteus vulgaris) was above 50 µg/mL throughout. The IC100 in the assay on Rhizomucor miehei was above 50 µg/mL; in the assay with Botrytis cinerea it was 50 µg/mL; with Pyricularia grisea it was 2.5 µg/mL; in the assay with Penicillium chrysogenum, 15 µg/mL; with Paecilomyces variotii, above 50 µg/mL; in the assay with Fusarium graminearum, 2.5 µg/mL. Also, the IC100 in the assay on Phytophthora infestans turned out to be 5 µg/mL. Moreover, in [4], the IC50 worked out at 50 µg/mL (≈ 156 µM). Moreover, the zone of inhibition at 50 µg/disc is 11 mm with Eremothecium coryli, 0 mm with Bacillus subtilis and 7 mm in the assay with Brevibacillus brevis.

These data come from ChEMBL document CHEMBL1154148, “Ascomycones A-C, heptaketide metabolites from an unidentified ascomycete” (J Nat Prod, 2008).
